These are literature values, as cited in patent EP1688139A1 (Board of Regents of the University of Nebraska, priority 2000, dated 2002).

In the data set the test system is 3-nitropropionic acid. As to conditions: rats, diet supplemented with creatine for 2 weeks, exposed to 3-nitropropionic acid.

As to “N-aminoiminomethyl-N-methylglycine [Creatine]”, the “less lesion volume than nonsupplemented animals” value is given as 83%.
